Assays:
Type in all cases: physicochemical
[1] = Decomposition point by thermal analysis (TG-DTA); conditions: 5.0 mg
Experimental: The compounds 1, 2, 4, 6, 8, 9, 11, 12, 13, 15, 16, D-1, D-3, D-4, D-7, D-8, D-9, D-12, D-14, D-15, D-20, C-1, and C-2 were each subjected to measurement with a thermal analysis apparatus (TG-DTA) (manufactured by Rigaku Corporation, trade name: “Thermo Plus EVO TG 8120”) by using 5.0 mg thereof.

[2] = Transmittance of transparent cured film
In short: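 Films cured at 80 mJ/cm^2 exposure, otherwise prepared as in the earlier film evaluation. Spectrophotometer read in quartz cell, 1 cm path, giving transmittance (%) at 400 nm and average transmittance (%) over 400–700 nm.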

[3] = Average transmittance of composition; conditions: photosensitive composition, quartz cell, optical path length 1 cm
Experimental: The average transmittance (%) of each of the photosensitive resin compositions obtained in Examples 1 to 9, Examples 2-1 to 2-10, and Comparative Examples 1 and 2 in the range of from 400 nm to 700 nm was measured with a spectrophotometer (manufactured by Hitachi High-Technologies Corporation, trade name: “U-3900H”, quartz cell, optical path length; 1 cm).

[4] = cured at exposure energy quantity 80 mJ/cm^2

Decomposition point [1]: 277.0 °C | Average transmittance (700 nm to 400 nm) Transparent cured film [2, 4]: 99.9% | Transmittance (400 nm) Transparent cured film [2, 4]: 99.4% | transparency of photosensitive composition and formed product (in words) ([2]; photopolymerization initiator containing the compound): additionally excellent transparency | Average transmittance (700 nm to 400 nm) Solution [3]: 96.3%
SMILES: CCCC1(CCC)c2cc(C(=O)c3ccccc3C)ccc2-c2ccc(/C(C)=N/OC(C)=O)cc21 [Compound 4]
